# Test results as given in patent US20250281679A1, “BIOMIMETIC COATING FOR ENDOVASCULAR STENT” (INSERM (Institut National de la Santé et de la Recherche …, priority 2021, published 2025).
# Square brackets hold non-standard residues; d marks the D form. Primed or numbered codes have the meaning given here. Ends that are not written are not given here. Lys(N3) = [N-]=[N+]=NCCCC[C@H](N)C(=O)O; PEG4′ = not defined here
# How the values were obtained:
# [1] = test system: New Zealand White rabbits; experiment: Coated flow-diverter stents (CFD) in the rabbit aneurysm model, no aspirin nor clopidogrel after implantation; type: in vivo; settings: 7 days, n=3, no aspirin nor clopidogrel after the implantation; preliminary
# Description: The same materials and protocol as in Example 3 were used, except that: • Only 3 animals were used for each condition, and. • No aspirin nor clopidogrel was given to animals after the implantation.
# [2] = test system: Human aortic endothelial cells; experiment: Human aortic endothelial cells grown 48 h on bare or peptide-coated nitinol disks; F-actin and CD31 fluorescence image analysis; type: cell-based
# Protocol: Nitinol disks are left untouched (bare metal) or coated with a domain 1, domain 2 or domain 1 and 2 CD31 analog peptide. The tested peptide is grafted to the nitinol disk following a polydopamine, DBCO-PEG4-amine and azide CD31 derivative peptide using a sequential dip-coating layering procedure. After this step, all the disks are incubated with Human aortic endothelial cells for 48h. Disks are then rinsed and the cells are fixed in a formalin solution before staining. The staining is fulfilled using phalloidin coupled to AlexaFluor®488 dye (green fluorescence for Actin), DAPI is used for DNA staining and a domain 1 CD31 antibody coupled to APC is used for external Domain 1 staining. The cell adhesion and Actin/CD31 expression was evaluated by image analysis of the surface after staining.
# In particular, as per FIG. 2 the bare or coated nitinol disks were placed at the bottom of culture wells. Primary Human Aortic Endothelial Cells (HAEC) were allowed to grow on the disks for a period of 48 h. The disks were thereafter rinsed with phosphate buffered saline, fixed in formalin, and processed for fluorescence microscopy. Disk-adherent cells were immersed in a solution comprising Hoechst 33342 (1 μg/ml, to stain the nuclei), phalloidin coupled to AlexaFluor®488 dye (0.5 μM, to stain F-actin fibers) and a monoclonal antibody directed against CD31 domain 1, coupled to allophycocyanin (to detect the presence and localization of intact CD31 at the cell surface) for 1 hour at 37° C., washed and mounted face down on glass bottom imaging chambers for imaging with an inverted fluorescence microscope.
# Surface type is indicated on the Y axis, data are expressed as average±SD (N=6/surface type). Each dot corresponds to a specific surface modification. The F-actin expression relates the cellular stress of the cell in presence of the exogenous material.
# In FIG. 4 the surface type is indicated on the Y axis. Each dot corresponds to a specific surface modification. Data are expressed as “Integrated Density” average±SD (N=6/surface type). CD31 expression relates the capacity of endothelial cells to adopt a physiologic phenotype while growing on a given substrate. An important variability is observed in terms of CD31 expression by HAEC according to the surface modification of the nitinol disks.
# The effect of different peptides, belonging to the different groups, were tested in batches following the same protocol as in FIG. 6. Different peptides from each group were tested in batches and the effect of individual peptides was repeatedly assessed in separate experiments. Data from all experiments were obtained by computer-assisted analysis of images of the disk side covered with endothelial cells, captured in the blue, green and red channel of an inverted fluorescence microscope. The functional score of the peptides belonging to the different groups was calculated by multiplying the number of cells (as detected by the number of blue, Dapi+ nuclei) for the integrated density of CD31 expression (red signal provided by the binding of a mouse anti-human CD31 monoclonal antibody, clone 9G11, conjugated allophycocyanin) and their product being divided for the integrated density of the F-actin polymerization (Phalloidin coupled to a green fluorochrome).
# The same protocol as in Example 1 was followed, using peptides according to the invention (SP547, SP548 SP745, SP1374, SP1072, SP1070, SP1071, SP1379 and SP1383) as defined above and the prior art peptide P8RI of sequence KWPALFVR (SEQ ID NO: 52).
# The “CD31/Actin” score, resulting from the integrated density of CD31 immunostaining signal divided by the signal of phalloidin, which binds to the polymerized F-actin of the cytoskeleton, has been used to identify the physiological/non-stressed character of the arterial endothelial cells growing onto the surface of experimental disks placed at the bottom of culture wells. […]
# [3] = test system: New Zealand White rabbits; experiment: Coated flow-diverter stents (CFD) implanted in aneurysm-carrying artery and abdominal aorta of the rabbit aneurysm model, with aspirin and clopidogrel; SEM and histopathology; type: in vivo
# Description: Flow-diverter stents (CFD) are braided meshes made of nitinol, from Sinomed. They are coated by one of the following coatings: • 1. SP1072 peptide according to the invention, or • 2. Hydrophilic polymer eG NTMA (obtained from the electrografting of N-[Tris(hydroxymethyl)Methyl] Acrylamide).
# A total of 8 healthy New Zealand White rabbits (including 2 spare animals), male and female, weighing about 3 kg, were included in this study. A total of 3 observation time points of 7 days, 30 days and 60 days postoperatively were set. The experiment was divided into two steps: 1) aneurysm animal modeling; 2) implantation of a dense mesh stent in the aneurysm-carrying artery and abdominal aorta for each animal. The stent implantation in the aneurysm-carrying artery was to be used to examine the safety and effectiveness of the stent in treating aneurysms, and the stent implantation in the abdominal aorta, covering a pair of lumbar arteries, was to be used to examine the safety of the tested stent.
# The test group was implanted with a dense mesh stent system in the aneurysm location (common carotid artery) and in the abdominal aorta of the animal model, and the control group was implanted with a dense mesh stent system in the aneurysm-carrying artery, where the abdominal aorta was implanted with the device to evaluate the effect of the stent on the penetrating and branch vessels.
# In addition to heparin sodium injection 150 U/kg by IV during implantation, antiplatelet therapy (aspirin and clopidogrel) was given to the animals at 5 mg/kg each by feeding once a day for 3 days before surgery and at 5 mg/kg each by feeding postoperative to endpoint.
# The collected tissues of the stented segments of the carrier arteries were preserved in 10% neutral formalin for more than 48 hours of immersion fixation, dehydrated in alcohol gradient and treated with xylene transparency for histopathological analysis.
# The resin-embedded stented segment of the aneurysm-carrying artery was sectioned transversely through the neck of the aneurysm, with one slice cut at the aneurysm and two slices cut at the non-aneurysm, and stained with HE; the non-stented segment was paraffin-embedded, with one slice cut at the proximal and one at the distal end; HE staining was performed for histopathological evaluation.
# One animal each at 7D (7 days), 30D (30 days) and 60D (60 days) was randomly selected, and the aneurysm-carrying artery and abdominal aorta implanted at the above time points were collected for SEM to observe the endothelialization of the flow-directed stent at the aneurysm neck site and the opening site of the branch vessels at the abdominal aorta site.
# [4] = day 7, aneurysm-carrying artery, HE staining, FIG. 29
# [5] = day 60, aneurysm-carrying artery, FIG. 30
substance,measurement,setting,value
YKSTVIVNNKEKTTAE-PEG4-K(N3)-CONH2 (YKSTVIVNNKEKTTAE[PEG4′][Lys(N3)]-NH2) [SP1072],survival and thrombus after implantation,[1],still alive with no thrombus
same,CD31/Actin score,"[2]; Example 2, FIG. 25, compared to bare metal disks or disks coated with PDA alone",significantly higher
same,"CD31 expression, Integrated Density","[2]; HAEC 48 h on coated nitinol disks, anti-CD31 domain 1 antibody, compared to other modified disks and bare controls, FIGS. 2, 4, 5",evident positive effect in terms of CD31 expression
same,ratio between CD31 and F-actin expression,"[2]; compared to bare metal and disks coated with PDA only, FIG. 6",higher CD31/actin ratio
same,endothelialization of the device at sites other than the aneurysm entry (conclusion),[3]; Example 3 conclusion,fast and complete without apparent inflammation nor neointima
same,endothelialization on the inner surface of the flow-diverter stents (conclusion),[3]; Example 3 conclusion,promotes early endothelialization on the inner surface of the flow-diverter stents
same,neo arterial wall at the entry of the aneurysm sac and thrombus inside the sac (conclusion),[3]; Example 3 conclusion,"promotes the growth of an organized, blood-impermeable neo arterial wall at the entry of the aneurysm sac"
same,entry of fresh blood into the aneurysmal sac / thrombus (histopathology),[3]; [4],fresh blood is no longer allowed to enter and remain trapped there
same,organization of the thrombus in the aneurysmal sac (histopathology),[3]; [4],organized
same,inflammation/thrombosis of the arterial wall in contact with the stent struts (histopathology),[3]; [5],absence of inflammation/thrombosis of the arterial wall that is already in contact with the stent struts
same,organization of the thrombus in the aneurysmal sac (histopathology),[3]; [5],very well organized
